Key:
HAP1 MTAP-intact = experiment: SDMA in-cell western assay, HAP1 MTAP-intact cell line; format: cell-based; settings: Homo sapiens
Text: Table 1a also indicates IC50 values in an MTAP-isogenic cell line pair for exemplary compounds in an SDMA in-cell western assay (columns 7-8). HAP1 MTAP-intact is a cell line in which endogenous levels of MTAP are expressed, and HAP1 MTAP-deleted is an MTAP-null cell line. […] Compounds with a ratio in the SDMA in-cell western assay of equal to or greater than 3 fold are considered MTAP-selective.

PRMT5 [1] = target: T1, PRMT5 (Homo sapiens, UniProt O14744); experiment: PRMT5 IC50 assay in the presence of MTA as cofactor; format: biochemical; settings: for IC50: PRMT5, MTA as cofactor
T1 construct: purchased Viva (custom protein)
Procedure, shortened: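 IC50 against PRMT5 determined with SAM as cofactor, with no cofactor, and with MTA as cofactor. Ki derived as IC50/1.5 for the SAM assay and IC50/13.5 for the MTA assay; SAM Ki to MTA Ki ratio also reported.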

PRMT5 [2] = target: T1, PRMT5; experiment: PRMT5 IC50 assay in the presence of SAM as cofactor; format: biochemical
Procedure, shortened: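 Human PRMT5 inhibition, IC50 in μM; cofactor varied (SAM / MTA / none).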

PRMT5 [3] = target: T1, PRMT5; experiment: PRMT5 IC50 assay with no cofactor; format: biochemical
Procedure, shortened: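 Cofactor-free, SAM and MTA formats; IC50 μM; Ki = IC50/1.5 for SAM, IC50/13.5 for MTA.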

HAP1 MTAP-deleted = experiment: SDMA in-cell western assay, HAP1 MTAP-deleted cell line; format: cell-based; settings: Homo sapiens, HAP1 MTAP-deleted cell line
Text: Table 1a also indicates IC50 values in an MTAP-isogenic cell line pair for exemplary compounds in an SDMA in-cell western assay (columns 7-8). HAP1 MTAP-intact is a cell line in which endogenous levels of MTAP are expressed, and HAP1 MTAP-deleted is an MTAP-null cell line.

[4] = ratio between Ki in the presence of SAM and Ki in the presence of MTA
[5] = ratio between the Ki in the presence of SAM and the Ki in the presence of MTA

T1 sequence (O14744 whole entry): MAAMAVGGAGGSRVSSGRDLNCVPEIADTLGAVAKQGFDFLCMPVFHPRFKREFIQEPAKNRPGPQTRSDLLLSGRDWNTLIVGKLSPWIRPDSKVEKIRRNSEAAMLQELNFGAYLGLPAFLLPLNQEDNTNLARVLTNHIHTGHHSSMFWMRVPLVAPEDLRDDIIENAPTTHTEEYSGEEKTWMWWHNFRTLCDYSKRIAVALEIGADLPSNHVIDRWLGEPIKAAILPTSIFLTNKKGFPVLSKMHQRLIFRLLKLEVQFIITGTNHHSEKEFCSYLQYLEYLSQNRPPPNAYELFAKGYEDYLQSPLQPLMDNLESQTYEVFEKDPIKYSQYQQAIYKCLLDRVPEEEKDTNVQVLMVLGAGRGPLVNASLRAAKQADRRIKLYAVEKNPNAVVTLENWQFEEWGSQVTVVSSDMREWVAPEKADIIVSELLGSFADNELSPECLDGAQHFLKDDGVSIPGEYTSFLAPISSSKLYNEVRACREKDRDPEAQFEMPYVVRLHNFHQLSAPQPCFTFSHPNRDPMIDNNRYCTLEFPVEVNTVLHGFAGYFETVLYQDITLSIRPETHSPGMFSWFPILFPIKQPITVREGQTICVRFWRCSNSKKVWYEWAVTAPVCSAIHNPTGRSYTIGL
T1 sequence (Q9BQA1 whole entry partner): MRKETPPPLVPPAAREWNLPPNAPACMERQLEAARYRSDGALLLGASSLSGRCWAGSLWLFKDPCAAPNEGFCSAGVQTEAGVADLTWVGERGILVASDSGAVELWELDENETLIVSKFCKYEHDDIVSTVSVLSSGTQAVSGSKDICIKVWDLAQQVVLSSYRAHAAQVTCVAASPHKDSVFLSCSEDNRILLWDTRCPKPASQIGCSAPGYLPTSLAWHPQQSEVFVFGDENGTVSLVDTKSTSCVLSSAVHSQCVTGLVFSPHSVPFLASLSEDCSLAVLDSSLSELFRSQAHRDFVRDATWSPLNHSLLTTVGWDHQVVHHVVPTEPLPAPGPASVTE

| IC50 (PRMT5 [1]) [nM] | IC50 (PRMT5 [2]) [nM] | IC50 (PRMT5 [3]; read-out: No Co-factor IC50) [nM] | IC50 (PRMT5 [3]) [nM] | SMILES | IC50 (HAP1 MTAP-intact) [nM] | SAM/MTA Ratio (PRMT5 [1]; [4]) | IC50 (HAP1 MTAP-deleted) [nM] | SAM/MTA Ratio (PRMT5 [1]; [5]) |
| --- | --- | --- | --- | --- | --- | --- | --- | --- |
| 50 to 500 | 50 to 500 | ≥ 5000 | – | CC(=O)N1CC2CC1CC2Nc1cc(C(=O)NC[C@H](O)CN2CCc3cc(OCc4ocnc4C)ccc3C2)ncn1 (stereo partly drawn) [Compound 632, 6-({2-acetyl-2-azabicyclo[2.2.1]heptan-5-yl}amino)-N-[(2S)-2-hydroxy-3-{6-[(4-methyl-1,3-oxazol-5-yl)methoxy]-1,2,3,4-tetrahydroisoquinolin-2-yl}propyl]pyrimidine-4-carboxamide] | – | A (a Ki ratio greater than or equal to 10 fold between the Ki in the presence of SAM and the Ki in the presence of MTA) | – | – |
| < 50 | 50 to 500 | 500 to 5000 | – | CC(=O)N1CCC(Nc2cc(C(=O)NC[C@H](O)CN3CCc4cc(OCc5ocnc5C)ccc4C3)cc(C(C)C)n2)CC1 [Compound 646, (S)-2-((1-acetylpiperidin-4-yl)amino)-N-(2-hydroxy-3-(6-((4-methyloxazol-5-yl)methoxy)-3,4-dihydroisoquinolin-2(1H)-yl)propyl)-6-isopropylisonicotinamide] | – | A (a Ki ratio greater than or equal to 10 fold between the Ki in the presence of SAM and the Ki in the presence of MTA) | – | – |
| 50 to 500 | 500 to 5000 | – | ≥ 5000 | CCCN(C)c1cc(C(=O)NC[C@H](O)CN2CCc3cc(OCc4ocnc4C)ccc3C2)cc(NC2CCC2)n1 [Compound 553, 2-(cyclobutylamino)-N-[(2S)-2-hydroxy-3-{6-[(4-methyl-1,3-oxazol-5-yl)methoxy]-1,2,3,4-tetrahydroisoquinolin-2-yl}propyl]-6-[methyl(propyl)amino]pyridine-4-carboxamide] | – | – | – | A (a Ki ratio greater than or equal to 10 fold between the Ki in the presence of SAM and the Ki in the presence of MTA) |
| 50 to 500 | 50 to 500 | ≥ 5000 | – | Cc1ncoc1COc1ccc2c(c1)CCN(C[C@@H](O)CNC(=O)c1ccnc(NC3CCN(C)C(=O)C3)c1)C2 (stereo partly shown) [Compound 627] | – | A (a Ki ratio greater than or equal to 10 fold between the Ki in the presence of SAM and the Ki in the presence of MTA) | – | – |
| 500 to 5000 | 500 to 5000 | – | ≥ 5000 | CC(=O)N1C[C@@H]2[C@H](C1)[C@H]2Nc1cc(C(=O)NC[C@H](O)CN2CCc3cc(OCc4ocnc4C)ccc3C2)ncn1 [Compound 620, 6-{[(1R,5S,6R)-3-acetyl-3-azabicyclo[3.1.0]hexan-6-yl]amino}-N-[(2S)-2-hydroxy-3-[6-[(4-methyl-1,3-oxazol-5-yl)methoxy]-1,2,3,4-tetrahydroisoquinolin-2-yl]propyl]pyrimidine-4-carboxamide] | – | – | – | A (a Ki ratio greater than or equal to 10 fold between the Ki in the presence of SAM and the Ki in the presence of MTA) |
| 50 to 500 | 50 to 500 | – | ≥ 5000 | Cc1c(OCc2cnco2)ccc2c1CCN(C[C@@H](O)CNC(=O)c1cc(NC3CN(C(=O)C4CCC4)C3)ncn1)C2 [Compound 585, 6-[(1-cyclobutanecarbonylazetidin-3-yl)amino]-N-[(2S)-2-hydroxy-3-{5-methyl-6-[(1,3-oxazol-5-yl)methoxy]-1,2,3,4-tetrahydroisoquinolin-2-yl}propyl]pyrimidine-4-carboxamide] | – | – | – | A (a Ki ratio greater than or equal to 10 fold between the Ki in the presence of SAM and the Ki in the presence of MTA) |
| 50 to 500 | 500 to 5000 | – | ≥ 5000 | O=C(NC[C@H](O)CN1CCc2cc(OCc3cnco3)ccc2C1)c1cc(NC2CCC2)ncn1 [Compound 538, (S)-6-(cyclobutylamino)-N-(2-hydroxy-3-(6-(oxazol-5-ylmethoxy)-3,4-dihydroisoquinolin-2(1H)-yl)propyl)pyrimidine-4-carboxamide] | – | – | – | A (a Ki ratio greater than or equal to 10 fold between the Ki in the presence of SAM and the Ki in the presence of MTA) |
| 50 to 500 | 50 to 500 | 500 to 5000 | – | CC1(CCC(=O)N2CCC(Nc3cc(C(=O)NC[C@H](O)CN4CCc5cc(OCc6cnco6)ccc5C4)ncn3)CC2)N=N1 [Compound 363, N-[(2S)-2-hydroxy-3-[6-(oxazol-5-ylmethoxy)-3N-dihydro-1H-isoquinolin-2-yl]propyl]-6-[[1-[3-(3-methyldiazirine-3-yl)propanoyl]-4-piperidyl]amino]pyrimidine-4-carboxamide] | – | A (a Ki ratio greater than or equal to 10 fold between the Ki in the presence of SAM and the Ki in the presence of MTA) | – | – |

Second part, the molecule before the results:

| SMILES | IC50 (PRMT5 [1]) [nM] | IC50 (PRMT5 [2]) [nM] | IC50 (PRMT5 [3]; read-out: No Co-factor IC50) [nM] | IC50 (PRMT5 [3]) [nM] | IC50 (HAP1 MTAP-intact) [nM] | SAM/MTA Ratio (PRMT5 [1]; [4]) | IC50 (HAP1 MTAP-deleted) [nM] | SAM/MTA Ratio (PRMT5 [1]; [5]) |
| --- | --- | --- | --- | --- | --- | --- | --- | --- |
| CC(=O)N1CC(Nc2cc(C(=O)NC[C@H](O)CN3CCc4cc(OCc5ocnc5C)c(F)cc4C3)cc(N3CCCCC3)n2)C1 [Compound 638] | 50 to 500 | 50 to 500 | 50 to 500 | – | 1000 to 10000 | A (a Ki ratio greater than or equal to 10 fold between the Ki in the presence of SAM and the Ki in the presence of MTA) | – | – |
| Cc1ncoc1COc1ccc2c(c1)CCN(C[C@@H](O)CNC(=O)c1ccnc(NC3CCC3)c1)C2 [Compound 96, (S)-2-(cyclobutylamino)-N-(2-hydroxy-3-(6-((4-methyloxazol-5-yl)methoxy)-3,4-dihydroisoquinolin-2(1H)-yl)propyl)isonicotinamide] | – | – | – | – | < 1000 | – | < 1000 | – |
| CC(=O)N1CCC(Nc2cc(C(=O)NC[C@H](O)CN3CCc4c(C)c(OCc5ocnc5C)cc(F)c4C3)ccn2)CC1 [Compound 642, 2-[(1-acetyl-4-piperidyl)amino]-N-[(2S)-3-[8-fluoro-5-methyl-6-[(4-methyloxazol-5-yl)methoxy]-3,4-dihydro-1H-isoquinolin-2-yl]-2-hydroxy-propyl]pyridine-4-carboxamide] | 50 to 500 | 50 to 500 | 500 to 5000 | – | ≥ 10000 | A (a Ki ratio greater than or equal to 10 fold between the Ki in the presence of SAM and the Ki in the presence of MTA) | – | – |
| O=C(NC[C@H](O)CN1CCc2cc(OCc3cn[nH]c3)ccc2C1)c1ccnc(NC2CCC2)c1 [Compound 163, 2-(cyclobutylamino)-N-[(2S)-2-hydroxy-3-[6-(1H-pyrazol-4-ylmethoxy)-3,4-dihydro-1H-isoquinolin-2-yl]propyl]pyridine-4-carboxamide] | – | – | – | – | < 1000 | – | < 1000 | – |
| Cn1nccc1COc1ccc2c(c1)CCN(C[C@@H](O)CNC(=O)c1ccnc(NC3CCC3)c1)C2 [Compound 14, (S)-2-(cyclobutylamino)-N-(2-hydroxy-3-(6-((1-methyl-1H-pyrazol-5-yl)methoxy)-3,4-dihydroisoquinolin-2(1H)-yl)propyl)isonicotinamide] | – | – | – | – | 1000 to 10000 | – | ≥ 10000 | – |
| O=C(NC[C@H](O)CN1CCc2cc(OCc3cnco3)ccc2C1)c1ccnc(NC2CCC2)c1 [Compound 74, 2-(cyclobutylamino)-N-[(2S)-2-hydroxy-3-[6-(oxazol-5-ylmethoxy)-3,4-dihydro-1H-isoquinolin-2-yl]propyl]pyridine-4-carboxamide] | – | – | – | – | 1000 to 10000 | – | 1000 to 10000 | – |
| CO[C@H]1CC[C@@H](Nc2cc(C(=O)NC[C@H](O)CN3CCc4c(ccc(OCc5cnco5)c4C)C3)ncn2)CC1 [Compound 541, N-[(2S)-2-hydroxy-3-{5-methyl-6-[(1,3-oxazol-5-yl)methoxy]-1,2,3,4-tetrahydroisoquinolin-2-yl}propyl]-6-{[(1s,4s)-4-methoxycyclohexyl]amino}pyrimidine-4-carboxamide] | 50 to 500 | 500 to 5000 | – | ≥ 5000 | – | – | – | A (a Ki ratio greater than or equal to 10 fold between the Ki in the presence of SAM and the Ki in the presence of MTA) |
| Cc1c(OCc2cnco2)ccc2c1CCN(C[C@@H](O)CNC(=O)c1cc(N[C@H]3C[C@H](C(=O)N4CCCCC4)C3)ncn1)C2 [Compound 526] | 50 to 500 | 500 to 5000 | – | ≥ 5000 | – | – | – | A (a Ki ratio greater than or equal to 10 fold between the Ki in the presence of SAM and the Ki in the presence of MTA) |
| Cc1c(OCc2cnco2)ccc2c1CCN(C[C@@H](O)CNC(=O)c1ccnc(NC34CC(C3)C4)c1)C2 [Compound 514, (S)-2-(bicyclo[1.1.1]pentan-1-ylamino)-N-(2-hydroxy-3-(5-methyl-6-(oxazol-5-ylmethoxy)-3N-dihydroisoquinolin-2(1H)-yl)propyl)isonicotinamide] | 500 to 5000 | 500 to 5000 | – | ≥ 5000 | – | – | – | A (a Ki ratio greater than or equal to 10 fold between the Ki in the presence of SAM and the Ki in the presence of MTA) |
| O=C(NC[C@H](O)CN1CCc2c(ccc(OCc3cnco3)c2Cl)C1)c1ccnc(NC2CCC2)c1F [Compound 326, (S)—N-(3-(5-chloro-6-(oxazol-5-ylmethoxy)-3N-dihydroisoquinolin-2(1H)-yl)-2-hydroxypropyl)-2-(cyclobutylamino)-3-fluoroisonicotinamide] | – | – | – | – | ≥ 10000 | – | ≥ 10000 | – |

Source: patent US11986471B2, “Compounds and methods of use” (Tango Therapeutics, Inc., priority 2018, dated 2024)
